This is an account of results in patent publication US8633207B2, “Quinazoline compounds and methods of use thereof” (Ambit Biosciences Corporation, priority 2010, dated 2014).

Structures are written as SMILES. Where only a bound is given, the exact number is not on record here.

Assay [1] has as its target T1, JAK2 (Homo sapiens, UniProt O60674).
T1 construct: made in house; host or cells: T7 phage display, or HEK-293 cells (alternative)
The assay is described as follows: Competition binding assay to determine Kd against JAK kinases: JAK2. The text has this: (§1) Competition Binding Assay to Determine Binding Constants (Kd) of the Compounds Against JAK Kinases
(§2) Competition binding assays used herein were developed, validated and performed as described in Fabian et al., Nature Biotechnology 2005, 23, 329-336. Kinases were produced as fusions to T7 phage (See, Fabian et al. or WO04/015142) or alternatively, the kinases were expressed in HEK-293 cells and subsequently tagged with DNA for PCR detection (See, WO08/005,310). For the binding assays, streptavidin-coated magnetic beads were treated with biotinylated affinity ligands for 30 min at rt to generate affinity resins. The liganded beads were blocked with excess biotin and washed with blocking buffer (SeaBlock (Pierce), 1% BSA, 0.05% Tween 20, 1 mM DTT) to remove unbound ligand and to reduce non-specific binding. Binding reactions were assembled by combining kinase, liganded affinity beads, and test compounds in 1× binding buffer (20% SeaBlock, 0.17×PBS, 0.05% Tween 20, 6 mM DTT). Test compounds were prepared as 100× stocks in DMSO and rapidly diluted into the aqueous environment. DMSO was added to control assays lacking a test compound. Primary screen interactions were performed in polypropylene 384-well plates in a final volume of 34 μL, while Kd determinations were performed in polystyrene 96-well plates in a final volume of 135 μL. The assay plates were incubated at room temperature with shaking for 1 hour, long enough for binding reactions to reach equilibrium, and the affinity beads were washed extensively with wash buffer (1×PBS, 0.05% Tween 20) to remove unbound protein. The beads were then resuspended in elution buffer (1×PBS, 0.05% Tween 20, 2 μM non-biotinylated affinity ligand) and incubated at room temperature with shaking for 30 min. The kinase concentration in the eluates was measured by quantitative PCR. Each kinase was tested individually against each compound. Kds were determined using eleven serial threefold dilutions. A selectivity score, which is a quantitative measure of selectivity of a compound against a panel of enzymes, may be calculated for a compound by dividing the number of enzymes for which a compound meets a set criteria, (for example, a binding constant of 100 nM or less), by the total number of enzymes tested.

The target of assay [2] is T2, Tyk2 (Homo sapiens, UniProt P29597).
T2 construct: made in house; host or cells: T7 phage display, or HEK-293 cells (alternative)
The assay is described as follows: Competition binding assay to determine Kd against JAK kinases: Tyk2.
Excerpt: as §1, §2

Assay [3] concerns GM-CSFR/JAK2/STAT5 pathway. Kind of assay: csTF-1 cell-based reporter assay. The conditions noted are these: Homo sapiens; csTF-1 cells, GM-CSF at 2 ng/mL, 4 hours; read-out: Cell Assay: CS TF-1 reporter assay IC50. On the procedure:
csTF-1 Cell-Based Reporter Assay
csTF-1 cells are derived from the human erythroleukemia cell line that is growth dependent on GM-CSF and has an intact GM-CSFR/JAK2/STAT5 pathway. The cell line contains stably integrated beta-lactamase reporter gene under the control of the […] (irf 1) response element recognized by the activated transcription factor STATS. csTF-1 cells (Invitrogen K1219) were washed with assay media (97% OPTIMEM/0.5% dialyzed FBS/0.1 mM NEAA/1 mM Na pyr/P/S) and seeded in the same media at 5×10^5 cell/mL in T150 flask. After 16 hour incubation, cells were seeded at 2×10^5 cell/well in 50 μl volume, into Costar, clear bottom, 96-well assay plates. Serial dilutions of compounds were added to the plates with final DMSO concentration at 0.5% and GM-CSF at 2 ng/mL and the plates were then incubated at […] and 5% CO2 for 4 hours. The plates were brought to room temperature before adding Substrate Mixture according to manufacturer's protocol (Invitrogen, Catalog #K1085). The assay plates containing the substrate mixture were incubated in the dark at room temperature for 2 hours. Blue and green fluorescence was measured with excitation at 409 nm and emission at 460 nm (for blue) and excitation at 409 nm and emission at 530 nm (for green) using Spectra Max Gemini EM.
Background: A reporter such as luciferase makes a cellular process visible.

The target in assay [4] is T3, JAK3 (Homo sapiens, UniProt P52333).
T3 construct: made in house; host or cells: T7 phage display, or HEK-293 cells (alternative)
T3 sequence (P52333 1-1124): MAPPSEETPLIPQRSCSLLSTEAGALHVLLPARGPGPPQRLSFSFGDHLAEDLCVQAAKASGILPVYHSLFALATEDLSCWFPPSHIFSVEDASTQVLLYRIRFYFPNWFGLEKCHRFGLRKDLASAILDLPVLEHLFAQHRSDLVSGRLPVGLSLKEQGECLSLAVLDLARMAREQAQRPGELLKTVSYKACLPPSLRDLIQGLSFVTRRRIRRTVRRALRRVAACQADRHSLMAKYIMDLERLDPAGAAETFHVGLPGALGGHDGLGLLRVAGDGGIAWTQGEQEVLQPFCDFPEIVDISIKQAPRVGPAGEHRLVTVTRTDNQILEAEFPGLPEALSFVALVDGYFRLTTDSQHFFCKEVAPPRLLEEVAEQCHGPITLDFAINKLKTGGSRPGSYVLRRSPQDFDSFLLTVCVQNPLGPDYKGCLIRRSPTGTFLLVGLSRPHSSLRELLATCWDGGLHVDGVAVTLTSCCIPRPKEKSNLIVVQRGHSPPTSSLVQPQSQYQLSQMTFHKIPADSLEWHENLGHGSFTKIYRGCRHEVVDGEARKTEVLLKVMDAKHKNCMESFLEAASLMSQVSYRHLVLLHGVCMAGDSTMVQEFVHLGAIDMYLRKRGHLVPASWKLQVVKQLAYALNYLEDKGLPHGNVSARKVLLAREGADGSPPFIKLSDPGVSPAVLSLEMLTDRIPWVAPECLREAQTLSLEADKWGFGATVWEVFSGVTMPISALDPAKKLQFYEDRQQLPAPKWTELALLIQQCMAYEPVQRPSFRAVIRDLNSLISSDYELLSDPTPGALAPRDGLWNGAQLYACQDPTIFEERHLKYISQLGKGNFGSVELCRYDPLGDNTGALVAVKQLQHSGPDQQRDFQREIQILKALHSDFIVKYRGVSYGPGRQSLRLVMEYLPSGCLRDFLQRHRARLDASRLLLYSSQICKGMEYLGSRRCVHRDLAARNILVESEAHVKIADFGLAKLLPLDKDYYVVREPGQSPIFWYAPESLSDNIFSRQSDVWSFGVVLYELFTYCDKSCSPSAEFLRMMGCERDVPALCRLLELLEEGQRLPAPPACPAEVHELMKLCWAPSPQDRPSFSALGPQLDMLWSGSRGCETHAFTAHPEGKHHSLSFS
The assay is described as follows: Competition binding assay to determine Kd against JAK kinases: JAK3.
Excerpt: as §1, §2

T2 sequence (P29597 whole entry): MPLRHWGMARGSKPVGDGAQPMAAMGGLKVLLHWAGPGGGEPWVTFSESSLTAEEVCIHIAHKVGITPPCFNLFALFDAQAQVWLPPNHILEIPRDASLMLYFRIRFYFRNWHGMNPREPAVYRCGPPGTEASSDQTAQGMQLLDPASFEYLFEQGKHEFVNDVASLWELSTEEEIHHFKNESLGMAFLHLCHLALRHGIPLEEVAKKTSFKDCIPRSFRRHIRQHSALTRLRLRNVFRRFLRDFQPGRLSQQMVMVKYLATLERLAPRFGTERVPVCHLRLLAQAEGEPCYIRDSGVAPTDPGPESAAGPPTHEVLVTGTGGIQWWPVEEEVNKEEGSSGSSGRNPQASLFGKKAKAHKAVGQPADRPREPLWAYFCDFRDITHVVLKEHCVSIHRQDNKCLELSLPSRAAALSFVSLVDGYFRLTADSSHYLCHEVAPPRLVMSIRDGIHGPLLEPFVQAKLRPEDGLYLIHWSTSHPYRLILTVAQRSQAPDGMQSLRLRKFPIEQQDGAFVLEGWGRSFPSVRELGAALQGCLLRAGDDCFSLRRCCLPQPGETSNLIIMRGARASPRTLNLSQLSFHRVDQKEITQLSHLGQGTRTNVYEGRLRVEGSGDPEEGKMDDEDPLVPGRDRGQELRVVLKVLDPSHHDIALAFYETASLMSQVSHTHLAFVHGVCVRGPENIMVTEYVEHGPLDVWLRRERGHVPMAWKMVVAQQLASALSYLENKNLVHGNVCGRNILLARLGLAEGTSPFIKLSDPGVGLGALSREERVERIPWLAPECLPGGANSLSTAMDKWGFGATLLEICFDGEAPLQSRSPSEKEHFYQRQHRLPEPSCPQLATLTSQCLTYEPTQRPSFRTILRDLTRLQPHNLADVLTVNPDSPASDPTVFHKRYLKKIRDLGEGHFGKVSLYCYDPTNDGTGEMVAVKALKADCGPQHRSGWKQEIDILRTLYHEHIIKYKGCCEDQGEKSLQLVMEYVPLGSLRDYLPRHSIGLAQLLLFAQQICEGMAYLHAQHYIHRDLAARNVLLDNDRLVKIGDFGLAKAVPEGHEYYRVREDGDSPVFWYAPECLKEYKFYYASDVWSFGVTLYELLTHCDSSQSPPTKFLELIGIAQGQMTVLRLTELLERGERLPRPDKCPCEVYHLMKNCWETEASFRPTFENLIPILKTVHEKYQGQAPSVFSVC
T1 sequence (O60674 whole entry): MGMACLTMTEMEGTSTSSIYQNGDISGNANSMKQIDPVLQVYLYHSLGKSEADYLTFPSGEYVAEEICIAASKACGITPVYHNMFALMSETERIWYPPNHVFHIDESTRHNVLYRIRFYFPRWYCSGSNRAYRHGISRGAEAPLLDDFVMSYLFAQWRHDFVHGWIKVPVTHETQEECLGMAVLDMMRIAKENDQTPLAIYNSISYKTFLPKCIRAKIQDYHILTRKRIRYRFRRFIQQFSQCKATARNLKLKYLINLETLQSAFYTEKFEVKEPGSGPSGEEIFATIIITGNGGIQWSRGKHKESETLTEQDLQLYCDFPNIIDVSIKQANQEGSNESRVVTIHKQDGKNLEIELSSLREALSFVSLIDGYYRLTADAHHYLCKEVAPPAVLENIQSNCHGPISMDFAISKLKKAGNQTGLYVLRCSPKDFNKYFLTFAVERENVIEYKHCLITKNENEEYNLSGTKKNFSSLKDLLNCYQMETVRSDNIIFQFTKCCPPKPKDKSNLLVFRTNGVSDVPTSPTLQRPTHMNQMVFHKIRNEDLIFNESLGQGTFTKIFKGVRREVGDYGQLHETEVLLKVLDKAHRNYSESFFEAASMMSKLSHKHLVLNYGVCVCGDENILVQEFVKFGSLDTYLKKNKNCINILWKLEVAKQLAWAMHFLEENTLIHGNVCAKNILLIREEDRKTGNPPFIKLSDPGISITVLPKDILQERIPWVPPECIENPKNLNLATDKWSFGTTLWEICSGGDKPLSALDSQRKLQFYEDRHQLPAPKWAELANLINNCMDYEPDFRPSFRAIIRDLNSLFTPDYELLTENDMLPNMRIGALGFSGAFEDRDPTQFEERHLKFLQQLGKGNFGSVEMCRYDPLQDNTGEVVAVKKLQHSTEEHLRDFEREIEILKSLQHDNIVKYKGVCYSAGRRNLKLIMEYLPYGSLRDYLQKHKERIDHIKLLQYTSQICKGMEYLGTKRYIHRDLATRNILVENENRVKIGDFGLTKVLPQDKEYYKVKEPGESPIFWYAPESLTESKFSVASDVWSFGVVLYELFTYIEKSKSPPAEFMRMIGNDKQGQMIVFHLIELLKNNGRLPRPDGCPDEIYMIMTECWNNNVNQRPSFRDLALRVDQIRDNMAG

As for `Cc1cnc(Nc2nc(C(F)(F)c3ccc(F)cn3)nc3ccccc23)s1` [Example 30, N-(2-(difluoro(5-fluoropyridin-2-yl)methyl)quinazolin-4-yl)-5-methylthiazol-2-amine], the Kd in assay [1] was 1 to 10 nM; in assay [2] it was 10 to 100 nM; in assay [4], above 100 nM. In assay [3], the IC50 fell in the range of 100 to 500 nM.

`Cc1cc(Nc2nc(C(F)(F)c3ccc(F)cn3)nc3c(Cl)cccc23)n[nH]1` [Example 13, 8-chloro-2-(difluoro(5-fluoropyridin-2-yl)methyl)-N-(5-methyl-1H-pyrazol-3-yl)quinazolin-4-amine]: the dissociation constant Kd in assay [1] is at most 1 nM; in assay [2] it was at most 10 nM; in assay [4] it was at most 10 nM. Besides, the IC50 in assay [3] was at most 100 nM.

As for `COc1ccc2c(Nc3cc(C)[nH]n3)nc(C(F)(F)c3ccc(F)cn3)nc2c1` [Example 6, 2-(difluoro(5-fluoropyridin-2-yl)methyl)-7-methoxy-N-(5-methyl-1H-pyrazol-3-yl)quinazolin-4-amine], the values for the Kd in assay [1], in assay [2] and in assay [4] were at most 1 nM, at most 10 nM and at most 10 nM, respectively. In addition, in assay [3], the IC50 is at most 100 nM.

As to `Cc1cc(Nc2nc(C(F)(F)c3ncc(F)cn3)nc3c(Cl)cccc23)n[nH]1` [Example 40, 8-chloro-2-(difluoro(5-fluoropyrimidin-2-yl)methyl)-N-(5-methyl-1H-pyrazol-3-yl)quinazolin-4-amine], the Kd in assay [1] is at most 1 nM; in assay [2] it was at most 10 nM; in assay [4], 10 to 100 nM. In assay [3], the IC50 is at most 100 nM.

On to `Cc1ccc2c(Nc3cc(C)[nH]n3)nc(C(F)(F)c3ccc(F)cn3)nc2c1` [Example 14, 2-(difluoro(5-fluoropyridin-2-yl)methyl)-7-methyl-N-(5-methyl-1H-pyrazol-3-yl)quinazolin-4-amine], for which the Kd in assay [1] was at most 1 nM; in assay [2], at most 10 nM; in assay [4] it was at most 10 nM. The IC50 in assay [3] was at most 100 nM.

In the case of `Cc1cc(Nc2nc(C(F)(F)c3ccc(F)cn3)nc3c(NS(C)(=O)=O)cccc23)n[nH]1` [Example 52, N-(2-(difluoro(5-fluoropyridin-2-yl)methyl)-4-((5-methyl-1H-pyrazol-3-yl)amino)quinazolin-8-yl)methanesulfonamide], the results for the Kd in assay [1], in assay [2] and in assay [4] were at most 1 nM, at most 10 nM and at most 10 nM, respectively. In addition, the IC50 in assay [3] was at most 100 nM.

As to `Cc1cc(Nc2nc(C(F)(F)c3ccc(F)cn3)nc3cc(C4CC4)ccc23)n[nH]1` [Example 9, 7-cyclopropyl-2-(difluoro(5-fluoropyridin-2-yl)methyl)-N-(5-methyl-1H-pyrazol-3-yl)quinazolin-4-amine], the figures for the Kd in assay [1], in assay [2] and in assay [4] were at most 1 nM, at most 10 nM and at most 10 nM, respectively. Besides, in assay [3], the IC50 is at most 100 nM.

In the case of `Cc1cc(Nc2nc(C(F)(F)c3ccc(F)cn3)nc3c(O)cccc23)n[nH]1` [Example 46, 2-(difluoro(5-fluoropyridin-2-yl)methyl)-4-((5-methyl-1H-pyrazol-3-yl)amino)quinazolin-8-ol], the results for the Kd in assay [1], in assay [2] and in assay [4] were at most 1 nM, at most 10 nM and at most 10 nM, respectively. Also, the IC50 in assay [3] is above 500 nM.

As to `CC(=O)Nc1cccc2c(Nc3cc(C)[nH]n3)nc(C(F)(F)c3ccc(F)cn3)nc12` [Example 48, N-(2-(difluoro(5-fluoropyridin-2-yl)methyl)-4-((5-methyl-1H-pyrazol-3-yl)amino)quinazolin-8-yl)acetamide], the figures for the Kd in assay [1], in assay [2] and in assay [4] were at most 1 nM, at most 10 nM and at most 10 nM, respectively. Also, the IC50 in assay [3] was at most 100 nM.

As to `Cc1cc(Nc2nc(C(F)(F)c3ccc(F)cn3)nc3c(S(C)(=O)=O)cccc23)n[nH]1` [Example 37, 2-(difluoro(5-fluoropyridin-2-yl)methyl)-N-(5-methyl-1H-pyrazol-3-yl)-8-(methylsulfonyl)quinazolin-4-amine], the values for the Kd in assay [1], in assay [2] and in assay [4] were 1 to 10 nM, at most 10 nM and 10 to 100 nM, respectively. The IC50 in assay [3] lay in the range of 100 to 500 nM.

For orientation: Kd means the free concentration of one partner at which half of the binding sites on the other are occupied at equilibrium, for simple one-to-one binding. What is called IC50 is the midpoint of a concentration-inhibition curve.
